# According to US10874646B2, “Epothilone analogs, methods of synthesis, methods of treatment, and drug conjugates thereof” (WILLIAM MARSH RICE UNIVERSITY, priority 2015, dated 2020):
# Assays:
# A498 = assay: NCI-60 human cancer cell line panel, five dose screen; format: cell-based; settings: NCI-60 five dose screen
# Excerpt: (§1) Biological evaluation. The synthesized epothilone analogues were submitted to the NCI for testing against the NCI-60 human cancer cell line panel (Shoemaker, 2006).
# A549/ATCC = assay: as above; format: cell-based; settings: NCI-60 five dose screen
# Excerpt: as §1
# CCRF-CEM = assay: as above; format: cell-based; settings: NCI-60 five dose screen
# Excerpt: as §1
# COLO 205 = assay: as above; format: cell-based; settings: NCI-60 five dose screen
# Excerpt: as §1
# HCT-116 = assay: as above; format: cell-based; settings: NCI-60 five dose screen
# Excerpt: as §1
# HCT-15 = assay: as above; format: cell-based; settings: NCI-60 five dose screen
# Excerpt: as §1
# HL-60(TB) = assay: as above; format: cell-based; settings: NCI-60 five dose screen
# Excerpt: as §1
# HOP-92 = assay: as above; format: cell-based; settings: NCI-60 five dose screen, read-out: GI50
# Excerpt: as §1
# HS 578T = assay: as above; format: cell-based; settings: NCI-60 five dose screen
# Excerpt: as §1
# HT29 = assay: as above; format: cell-based; settings: HT-29, NCI-60 five dose screen
# Excerpt: as §1
# K-562 = assay: as above; format: cell-based; settings: K562, NCI-60 five dose screen
# Excerpt: as §1
# KM12 = assay: as above; format: cell-based; settings: NCI-60 five dose screen
# Excerpt: as §1
# LOX IMVI = assay: as above; format: cell-based; settings: NCI-60 five dose screen
# Excerpt: as §1
# M14 = assay: as above; format: cell-based; settings: NCI-60 five dose screen
# Excerpt: as §1
# MCF7 = assay: as above; format: cell-based; settings: NCI-60 five dose screen
# Excerpt: as §1
# MDA-MB-435 = assay: as above; format: cell-based; settings: NCI-60 five dose screen
# Excerpt: as §1
# MDA-MB-468 = assay: as above; format: cell-based; settings: NCI-60 five dose screen
# Excerpt: as §1
# MOLT-4 = assay: as above; format: cell-based; settings: NCI-60 five dose screen
# Excerpt: as §1
# NCI-H23 = assay: as above; format: cell-based; settings: NCI-60 five dose screen
# Excerpt: as §1
# NCI-H460 = assay: as above; format: cell-based; settings: NCI-60 five dose screen
# Excerpt: as §1
# OVCAR-3 = assay: as above; format: cell-based; settings: NCI-60 five dose screen
# Excerpt: as §1
# PC-3 = assay: as above; format: cell-based; settings: NCI-60 five dose screen
# Excerpt: as §1
# RPMI-8226 = assay: as above; format: cell-based; settings: NCI-60 five dose screen
# Excerpt: as §1
# RXF 393 = assay: as above; format: cell-based; settings: NCI-60 five dose screen
# Excerpt: as §1
# SF-539 = assay: as above; format: cell-based; settings: NCI-60 five dose screen
# Excerpt: as §1
# SK-MEL-5 = assay: as above; format: cell-based; settings: NCI-60 five dose screen
# Excerpt: as §1
# SNB-75 = assay: as above; format: cell-based; settings: NCI-60 five dose screen
# Excerpt: as §1
# SR = assay: as above; format: cell-based; settings: NCI-60 five dose screen
# Excerpt: as §1
# SW-620 = assay: as above; format: cell-based; settings: NCI-60 five dose screen
# Excerpt: as §1
# U251 = assay: as above; format: cell-based; settings: U-251, NCI-60 five dose screen
# Excerpt: as §1
# tubulin = assay: Induction/enhancement of tubulin assembly (Lin, et al., 1996); format: biochemical; settings: 10 μM tubulin, 0.4M monosodium glutamate, 30 min at room temperature; Table 2; read-out: induction of tubulin assembly (EC50, μM ± SD)
# MCF-7 = assay: Cytotoxicity, standard NCI assay with sulforhodamine B, 96 h; settings: Homo sapiens, MCF7, 96 h, read-out: cytotoxicity (GI50, nM ± SD) MCF-7
# OVCAR-8 = assay: as above; settings: Homo sapiens, OVCAR-8, 96 h, read-out: cytotoxicity (GI50, nM ± SD) OVCAR-8
# [1] = tested on: NCI-60 human cancer cell line panel; assay: NCI-60 initial one dose test; format: cell-based; settings: 10 μM
# Excerpt: as §1
compound,measurement,setting,value
C/C(=C\c1ccn(-c2ccc(N)c(F)c2)n1)[C@@H]1C[C@@H]2O[C@]2(C)CCC[C@H](C)[C@H](O)[C@@H](C)C(=O)C(C)(C)[C@@H](O)CC(=O)O1 [Compound 12],GI50,A498,< 5 nM
same,GI50,A549/ATCC,6.05 nM
same,GI50,CCRF-CEM,6.09 nM
same,GI50,COLO 205,< 5 nM
same,GI50,HCT-116,< 5 nM
same,GI50,HCT-15,< 5 nM
same,GI50,HL-60(TB),< 5 nM
same,GI50,HOP-92,< 5 nM
same,GI50,HS 578T,5.51 nM
same,GI50,HT29,< 5 nM
same,GI50,K-562,< 5 nM
same,GI50,KM12,< 5 nM
same,GI50,LOX IMVI,< 5 nM
same,GI50,M14,< 5 nM
same,GI50,MCF7,< 5 nM
same,GI50,MDA-MB-435,< 5 nM
same,GI50,MDA-MB-468,7.22 nM
same,GI50,MOLT-4,< 5 nM
same,GI50,NCI-H23,5.72 nM
same,GI50,NCI-H460,< 5 nM
same,GI50,OVCAR-3,< 5 nM
same,GI50,PC-3,9.75 nM
same,GI50,RPMI-8226,< 5 nM
same,GI50,RXF 393,9.39 nM
same,GI50,SF-539,9.41 nM
same,GI50,SK-MEL-5,< 5 nM
same,GI50,SNB-75,< 5 nM
same,GI50,SR,< 5 nM
same,GI50,SW-620,< 5 nM
same,GI50,U251,< 5 nM
same,EC50,tubulin,7.8 ± 1 µM
same,GI50,MCF-7,2.5 nM
same,GI50,OVCAR-8,1.8 ± 0.4 nM
C/C(=C\c1cc(C(F)(F)F)nn1CCNC(=O)OC(C)(C)C)[C@@H]1C[C@@H]2O[C@]2(C)CCC[C@H](C)[C@H](O)[C@@H](C)C(=O)C(C)(C)[C@@H](O)CC(=O)O1 [Compound 6],activity in initial one dose test,[1],did not exhibit significant activity
same,EC50,tubulin,> 40 µM
same,GI50,MCF-7,4400 nM
same,GI50,OVCAR-8,1200 nM
C/C(=C\c1ccn(-c2ccc(N)c(C(F)(F)F)c2)n1)[C@@H]1C[C@@H]2O[C@]2(C)CCC[C@H](C)[C@H](O)[C@@H](C)C(=O)C(C)(C)[C@@H](O)CC(=O)O1 [Compound 11],GI50,A498,11.3 nM
same,GI50,A549/ATCC,13.4 nM
same,GI50,CCRF-CEM,12.3 nM
same,GI50,COLO 205,8.48 nM
same,GI50,HCT-116,4.82 nM
same,GI50,HCT-15,11 nM
same,GI50,HL-60(TB),7.36 nM
same,GI50,HOP-92,16.1 nM
same,GI50,HS 578T,7.1 nM
same,GI50,HT29,5.74 nM
same,GI50,K-562,10.2 nM
same,GI50,KM12,9.16 nM
same,GI50,LOX IMVI,10.3 nM
same,GI50,M14,4.88 nM
same,GI50,MCF7,< 3.25 nM
same,GI50,MDA-MB-435,< 3.25 nM
same,GI50,MDA-MB-468,10.6 nM
same,GI50,MOLT-4,14.2 nM
same,GI50,NCI-H23,18.3 nM
same,GI50,NCI-H460,8.73 nM
same,GI50,OVCAR-3,10.2 nM
same,GI50,PC-3,12.7 nM
same,GI50,RPMI-8226,9.98 nM
same,GI50,RXF 393,14 nM
same,GI50,SF-539,9.55 nM
same,GI50,SK-MEL-5,10.1 nM
same,GI50,SNB-75,5.75 nM
same,GI50,SR,7.29 nM
same,GI50,SW-620,6.23 nM
same,GI50,U251,14.6 nM
same,EC50,tubulin,2.5 ± 0.5 µM
same,GI50,MCF-7,3 ± 1 nM
same,GI50,OVCAR-8,2.5 ± 0.4 nM
C/C(=C\c1ccn(-c2ccc(N)cc2)n1)[C@@H]1C[C@@H]2O[C@]2(C)CCC[C@H](C)[C@H](O)[C@@H](C)C(=O)C(C)(C)[C@@H](O)CC(=O)O1 [Compound 8],GI50,A498,102 nM
same,GI50,A549/ATCC,36.9 nM
same,GI50,CCRF-CEM,34.1 nM
same,GI50,COLO 205,18.6 nM
same,GI50,HCT-116,18.7 nM
same,GI50,HCT-15,26.7 nM
same,GI50,HL-60(TB),15.8 nM
same,GI50,HOP-92,146 nM
same,GI50,HS 578T,44 nM
same,GI50,HT29,19.6 nM
same,GI50,K-562,24.7 nM
same,GI50,KM12,19.2 nM
same,GI50,LOX IMVI,23.6 nM
same,GI50,M14,19.2 nM
same,GI50,MCF7,15.2 nM
same,GI50,MDA-MB-435,8.09 nM
same,GI50,MDA-MB-468,39.2 nM
same,GI50,MOLT-4,38.9 nM
same,GI50,NCI-H23,25.2 nM
same,GI50,NCI-H460,20.5 nM
same,GI50,OVCAR-3,18.1 nM
same,GI50,PC-3,30.4 nM
same,GI50,RPMI-8226,21.3 nM
same,GI50,RXF 393,38.4 nM
same,GI50,SF-539,19 nM
same,GI50,SK-MEL-5,20 nM
same,GI50,SNB-75,11.4 nM
same,GI50,SR,30.3 nM
same,GI50,SW-620,25 nM
same,GI50,U251,35.6 nM
same,EC50,tubulin,15 ± 4 µM
same,GI50,MCF-7,10 nM
same,GI50,OVCAR-8,38 ± 10 nM
